Measured values reported in ChEMBL document CHEMBL4196009, “Novel vitexin-inspired scaffold against leukemia” (Eur J Med Chem, 2018).

Legend:
KOPN-8 = experiment: Antiproliferative activity against human KOPN8 cells after 72 hrs by CelTiter-Glo assay; format: functional, cell-based; details: KOPN-8, 72 h
SUP-B15 = experiment: Antiproliferative activity against human SUP-B15 cells after 72 hrs by CelTiter-Glo assay; format: functional, cell-based; details: SUP-B15, 72 h
HepG2 = experiment: Antiproliferative activity against human HepG2 cells after 72 hrs by CelTiter-Glo assay; format: functional, cell-based; details: HepG2, 72 h
BJ = experiment: Antiproliferative activity against human BJ cells after 72 hrs by CelTiter-Glo assay; format: cell-based
SEM cells = experiment: Antiproliferative activity against human SEM cells after 72 hrs by CelTiter-Glo assay; format: functional, cell-based
UoC-B1 = experiment: Antiproliferative activity against human UOCB1 cells after 72 hrs by CelTiter-Glo assay; format: functional, cell-based; details: UoC-B1, 72 h

| SMILES | EC50 (KOPN-8) | EC50 (SUP-B15) | EC50 (HepG2) | EC50 (BJ) | EC50 (SEM cells) | EC50 (UoC-B1) |
| --- | --- | --- | --- | --- | --- | --- |
| COc1ccc(-c2cc(=O)c3c(OC)cc(OC)cc3n2S(=O)(=O)c2c(C(C)C)cc(C(C)C)cc2C(C)C)cc1 | > 341 µM | 43.3 µM | > 341 µM | > 341 µM |  |  |
| COc1cc(OC)c2c(=O)cc(C(=O)Nc3cc(C(F)(F)F)ccc3Oc3ccccc3OC)[nH]c2c1 | > 53.4 µM | > 53.4 µM | 10.7 µM | > 53.4 µM | 10.8 µM |  |
| C=CCNC(=O)n1c(-c2ccc(OC)cc2)cc(=O)c2c(OC)cc(OC)cc21 | 12 µM | 16 µM | > 20 µM | 74 µM | 12 µM |  |
| COc1ccc(-c2cc(=O)c3c(OC)cc(OC)cc3n2S(=O)(=O)c2ccc(C)c([N+](=O)[O-])c2)cc1 | > 51.7 µM | > 51.7 µM | > 51.7 µM | > 51.7 µM |  |  |
| O=c1c(-c2ccc(O)cc2)coc2cc(O)cc(O)c12 [GENISTEIN] | > 86.2 µM | > 86.2 µM | 67.7 µM | > 86.2 µM | 59.3 µM | 35.7 µM |
| COC(=O)c1cc(=O)c2cc(NC(=O)NCCc3cccs3)ccc2[nH]1 | > 9.81 µM | > 19.5 µM | > 9.81 µM | > 19.5 µM | > 9.81 µM | > 9.81 µM |
| COc1cc(OC)c2c(=O)cc(-c3ccc4c(c3)OCO4)[nH]c2c1 | > 27.7 µM | 18.8 µM | > 27.7 µM | > 55.2 µM | > 27.7 µM | > 27.7 µM |
| COc1cc(OC)c2c(=O)cc(C(=O)Nc3ccc(-n4cccc4)cc3)[nH]c2c1 | > 77 µM | > 77 µM | > 77 µM | > 77 µM | > 77 µM | 51.8 µM |
| COc1ccc(-c2cc(=O)c3c(OC)cc(OC)cc3n2S(=O)(=O)c2ccc(C=O)cc2)cc1 | > 34.5 µM | > 34.5 µM | > 34.5 µM | > 34.5 µM |  |  |
| COc1cc(OC)c2c(=O)cc(C(=O)Nc3cccc(-c4nccs4)c3)[nH]c2c1 | > 54 µM | > 54 µM | > 54 µM | > 54 µM | > 54 µM | > 54 µM |
| COc1cc(OC)c2c(=O)cc(C(=O)Nc3cccc(N4CCCC4)c3)[nH]c2c1 | > 58.6 µM | > 58.6 µM | > 58.6 µM | > 58.6 µM | > 58.6 µM | > 58.6 µM |
| COC(=O)c1cc(=O)c2cc(NC(=O)Nc3ccc(C(F)(F)F)cc3)ccc2[nH]1 | > 6.35 µM | 3.27 µM | > 6.35 µM | > 12.6 µM | > 6.35 µM | > 6.35 µM |
| COC(=O)c1cc(=O)c2cc([N+](=O)[O-])ccc2[nH]1 | > 41.6 µM | 76.5 µM | > 41.6 µM | > 82.8 µM | > 41.6 µM | > 41.6 µM |
| COc1ccc(-c2cc(=O)c3c(OC)cc(OC)cc3n2S(=O)(=O)c2cc(F)c(F)c(F)c2)cc1 | > 65.5 µM | > 65.5 µM | > 65.5 µM | > 65.5 µM |  |  |
| CCOC(=O)[C@H](Cc1ccccc1)NC(=O)Nc1ccc2[nH]c(C(=O)OC)cc(=O)c2c1 | > 13.9 µM | 16.5 µM | > 13.9 µM | > 27.6 µM | > 13.9 µM | > 13.9 µM |
| COC(=O)c1cc(=O)c2cc(NC(=O)Nc3cc(OC)c(OC)c(OC)c3)ccc2[nH]1 | > 43.3 µM | > 86.2 µM | > 43.3 µM | > 86.2 µM | > 43.3 µM | > 43.3 µM |
| COC(=O)c1cc(=O)c2cc(NC(=O)Nc3ccc4c(c3)CCC4)ccc2[nH]1 | > 24.1 µM | > 24.1 µM | > 24.1 µM | > 24.1 µM | > 24.1 µM | > 24.1 µM |
| COc1cc(OC)c2c(=O)cc(C(=O)Nc3ccc(S(=O)(=O)c4ccccc4)cc3)[nH]c2c1 | > 70.7 µM | > 70.7 µM | > 70.7 µM | > 70.7 µM |  |  |
| COC(=O)c1cc(=O)c2cc(N)ccc2[nH]1 | > 33.8 µM | > 67.2 µM | > 33.8 µM | > 67.2 µM | > 33.8 µM | > 33.8 µM |
| COc1ccc(-c2cc(=O)c3c(OC)cc(OC)cc3n2S(=O)(=O)c2cccc(Br)c2)cc1 | > 58.6 µM | > 58.6 µM | > 58.6 µM | > 58.6 µM |  |  |
| COc1ccc(-c2c(Cl)c(=O)c3c(OC)cc(OC)cc3n2S(=O)(=O)c2ccc(OC)cc2)cc1 | 19.1 µM | 17.9 µM |  | 90 µM |  |  |
| COc1cc(OC)c2c(=O)cc(C(=O)Nc3ccc(Oc4ccc(F)cc4)cc3)[nH]c2c1 | > 50 µM | > 50 µM | > 50 µM | > 50 µM | > 50 µM | > 50 µM |
| COc1ccc(-c2cc(=O)c3c(OC)cc(OC)cc3n2S(=O)(=O)c2ccc(C#N)cc2)cc1 | > 17.2 µM | 7.9 µM | > 17.2 µM | > 17.2 µM | 1.3 µM |  |
| Nc1ccc2nc(C(=O)O)cc(O)c2c1 |  | 46 µM |  | 371 µM | 29 µM |  |

| SMILES | EC50 (KOPN-8) | EC50 (SUP-B15) | EC50 (HepG2) | EC50 (BJ) | EC50 (SEM cells) | EC50 (UoC-B1) |
| --- | --- | --- | --- | --- | --- | --- |
| COc1ccc(-c2cc(=O)c3c(OC)cc(OC)cc3n2S(=O)(=O)c2ccc([N+](=O)[O-])cc2)cc1 | 17.3 µM | 17.1 µM | > 29.3 µM | > 29.3 µM |  |  |
| COc1ccc(-c2cc(=O)c3c(OC)cc(OC)cc3n2S(=O)(=O)c2ccc(F)cc2)cc1 | > 65.5 µM | > 65.5 µM | > 65.5 µM | > 65.5 µM |  |  |
| COc1ccc(-c2cc(=O)c3c(OC)cc(OC)cc3n2S(=O)(=O)c2cccc([N+](=O)[O-])c2)cc1 | > 39.7 µM | > 39.7 µM | > 39.7 µM | > 39.7 µM |  |  |
| COc1cc(OC)c2c(=O)cc(C(=O)Nc3ccc(N4CCOCC4)cc3)[nH]c2c1 | > 36.8 µM | > 36.8 µM | > 36.8 µM | > 36.8 µM |  |  |
| COC(=O)c1cc(=O)c2cc(NC(=O)NCc3ccccc3)ccc2[nH]1 | > 19.5 µM | > 19.5 µM | > 19.5 µM | > 19.5 µM | > 19.5 µM | > 19.5 µM |
| COc1cc(OC)c2c(=O)cc(C(=O)Nc3ccccc3S(C)(=O)=O)[nH]c2c1 | > 39.7 µM | > 39.7 µM | > 39.7 µM | > 39.7 µM |  |  |
| COC(=O)c1cc(=O)c2cc(NC(=O)NC34CC5CC(CC(C5)C3)C4)ccc2[nH]1 | > 16.2 µM | 9.1 µM | > 16.2 µM | > 32.2 µM | > 16.2 µM | > 16.2 µM |
| COc1cc(OC)c2c(=O)cc(C(=O)Nc3cccc(-n4ccnc4)c3)[nH]c2c1 | > 16.4 µM | > 16.4 µM | > 16.4 µM | > 16.4 µM | > 16.4 µM | > 16.4 µM |
| COc1ccc(-c2cc(=O)c3c(OC)cc(OC)cc3n2S(=O)(=O)c2ccc(C)cc2)cc1 | > 44.8 µM | > 44.8 µM | > 44.8 µM | > 44.8 µM |  |  |
| COc1ccc(-c2cc(=O)c3c(OC)cc(OC)cc3n2S(=O)(=O)c2c(F)c(F)c(F)c(F)c2F)cc1 | > 34.5 µM | 4.1 µM | > 34.5 µM | > 34.5 µM | 3.9 µM |  |
| COc1ccc(-c2cc(=O)c3c(OC)cc(OC)cc3n2S(=O)(=O)c2ccc(Br)s2)cc1 | > 48.3 µM | > 48.3 µM | > 48.3 µM | > 48.3 µM |  |  |
| COC(=O)c1cc(=O)c2cc(NC(=O)Nc3ccc(Cl)c(Cl)c3)ccc2[nH]1 | > 6.35 µM | 5.52 µM | > 6.35 µM | > 12.6 µM | > 6.35 µM | > 6.35 µM |
| COc1ccc(-c2cc(=O)c3c(OC)cc(OC)cc3n2S(=O)(=O)c2cc(Cl)cc(Cl)c2O)cc1 | > 37.9 µM | > 37.9 µM | > 37.9 µM | > 37.9 µM |  |  |
| COC(=O)c1cc(=O)c2cc(NC(=O)Nc3ccc(C(F)(F)F)cc3[N+](=O)[O-])ccc2[nH]1 | > 26 µM | > 51.7 µM | > 26 µM | > 51.7 µM | 22.5 µM | > 26 µM |
| COc1ccc(-c2cc(=O)c3c(OC)cc(OC)cc3n2S(=O)(=O)c2ccc(OC)cc2)cc1 | > 82.8 µM | > 82.8 µM | > 82.8 µM | > 82.8 µM |  |  |
| COC(=O)c1cc(=O)c2c(OC)cc(OC)cc2[nH]1 | > 34.5 µM | 16.1 µM | > 34.5 µM | > 34.5 µM | > 34.5 µM | > 34.5 µM |
| COC(=O)c1cc(=O)c2cc(NC(=O)NC3c4ccccc4-c4ccccc43)ccc2[nH]1 | > 12.1 µM | > 24.1 µM | > 12.1 µM | > 24.1 µM | > 12.1 µM | > 12.1 µM |
| COc1ccc(-c2cc(=O)c3c(OC)cc(OC)cc3n2C)cc1 | 30 µM | 28 µM |  | 68 µM | 26 µM |  |
| COc1ccc(-c2cc(=O)c3c(OC)cc(OC)cc3n2S(=O)(=O)c2ccc(Cl)cc2)cc1 | > 34.5 µM | > 34.5 µM | > 34.5 µM | > 34.5 µM |  |  |
| COc1ccc(-c2cc(=O)c3c(OC)cc(OC)cc3n2S(=O)(=O)c2ccc(Br)cc2)cc1 | > 86.2 µM | 63.8 µM | 16.3 µM | > 86.2 µM |  |  |
| O=c1cc(-c2ccccc2)oc2cc(O)c(O)c(O)c12 [BAICALEIN] | 16 µM | 103 µM | 60 µM | > 86.2 µM |  |  |
| COc1cc(OC)c2c(=O)cc(C(=O)Nc3ccc(C4CCCCC4)cc3)[nH]c2c1 | 18.4 µM | > 43.1 µM | > 43.1 µM | 36.2 µM |  |  |
| COc1ccc(-c2cc(=O)c3c(OC)cc(OC)cc3n2S(=O)(=O)Cc2ccccc2)cc1 | > 34.5 µM | > 34.5 µM | > 34.5 µM | > 34.5 µM |  |  |
| COc1ccc(-c2[nH]c3cc(OC)cc(OC)c3c(=O)c2I)cc1 | 49.4 µM | > 86.2 µM | > 86.2 µM | > 86.2 µM |  |  |
